Results on nine compounds are retold here after patent US20240270762A1, “PENICILLIN-BINDING PROTEIN INHIBITORS” (priority 2021, published 2024).

Converted amounts (≈) assume the structure as drawn.

For one assay, the system named is P. aeruginosa CDC-0090. Nature of the assay: microbe, parasite or virus in culture. To be noted: Pseudomonas aeruginosa, CDC0090, read-out: Minimum inhibitory concentration, P. aeruginosa CDC-0090. It counts as cell-based.
The test system of the next assay is P. aeruginosa CDC-0095. Description: microbe, parasite or virus in culture. It counts as cell-based. To be noted: Pseudomonas aeruginosa, CDC0095, read-out: Minimum inhibitory concentration, P. aeruginosa CDC-0095.
For assay [1], the system named is P. aeruginosa (ΔmexAB-oprM). Description: Broth microdilution MIC in iron-depleted CAMHB (IDM). To be noted: Pseudomonas aeruginosa; iron-depleted CAMHB (IDM); […]; read-out: Minimum inhibitory concentration, P. aeruginosa ΔmexAB-oprM. It is filed as cell-based. In general terms: Broth dilution looks for growth in wells or tubes with falling amounts of substance.
In a further assay the test system is A. baumannii ATCC 19606. Nature of the assay: microbe, parasite or virus in culture. It is filed as cell-based. To be noted: Acinetobacter baumannii, ATCC19606, read-out: MIC, A. baumannii ATCC 19606.
In the next assay the test system is A. baumannii CDC-0083. Description: microbe, parasite or virus in culture. It is filed as cell-based. The following applies: Acinetobacter baumannii, CDC0083, read-out: MIC, A. baumannii CDC-0083.
The subject of a further assay is P. aeruginosa CDC-0110. Nature of the assay: microbe, parasite or virus in culture. It is filed as cell-based. To be noted: Pseudomonas aeruginosa, CDC0110, read-out: Minimum inhibitory concentration, P. aeruginosa CDC-0110.
Assay [2] concerns B. humptydooensis ATCC BAA-2767. Nature of the assay: microbe, parasite or virus in culture. It is filed as cell-based. The following applies: Burkholderia humptydooensis, ATCCBAA2767, read-out: Minimum inhibitory concentration (MIC), B. humptydooensis ATCC BAA-2767.
Another assay has as its system B. pseudomallei Bp82. Description: microbe, parasite or virus in culture. It is filed as cell-based. The following applies: Burkholderia pseudomallei, BP82, read-out: Minimum inhibitory concentration, B. pseudomallei Bp82.
For another assay, the target named is A. baumannii PBP2 (Acinetobacter baumannii, UniProt D0C8Z9). Description: Bocillin-FL competition binding via gel filtration, A. baumannii PBP2. In short, it runs like this: (§1)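 Enzyme was pre-incubated with rising inhibitor concentrations, then Bocillin-FL was added and incubated 15 minutes more. Bound probe was separated by gel filtration and fluorescence read. EC50 came from fitting fraction of PBP labelled versus inhibitor concentration to a Hill equation with ymin, ymax and n.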

The next assay deals with T1, A. baumannii PBP1a (Acinetobacter baumannii, UniProt A0ABX6CK30).
T1 sequence (A0ABX6CK30 1-851): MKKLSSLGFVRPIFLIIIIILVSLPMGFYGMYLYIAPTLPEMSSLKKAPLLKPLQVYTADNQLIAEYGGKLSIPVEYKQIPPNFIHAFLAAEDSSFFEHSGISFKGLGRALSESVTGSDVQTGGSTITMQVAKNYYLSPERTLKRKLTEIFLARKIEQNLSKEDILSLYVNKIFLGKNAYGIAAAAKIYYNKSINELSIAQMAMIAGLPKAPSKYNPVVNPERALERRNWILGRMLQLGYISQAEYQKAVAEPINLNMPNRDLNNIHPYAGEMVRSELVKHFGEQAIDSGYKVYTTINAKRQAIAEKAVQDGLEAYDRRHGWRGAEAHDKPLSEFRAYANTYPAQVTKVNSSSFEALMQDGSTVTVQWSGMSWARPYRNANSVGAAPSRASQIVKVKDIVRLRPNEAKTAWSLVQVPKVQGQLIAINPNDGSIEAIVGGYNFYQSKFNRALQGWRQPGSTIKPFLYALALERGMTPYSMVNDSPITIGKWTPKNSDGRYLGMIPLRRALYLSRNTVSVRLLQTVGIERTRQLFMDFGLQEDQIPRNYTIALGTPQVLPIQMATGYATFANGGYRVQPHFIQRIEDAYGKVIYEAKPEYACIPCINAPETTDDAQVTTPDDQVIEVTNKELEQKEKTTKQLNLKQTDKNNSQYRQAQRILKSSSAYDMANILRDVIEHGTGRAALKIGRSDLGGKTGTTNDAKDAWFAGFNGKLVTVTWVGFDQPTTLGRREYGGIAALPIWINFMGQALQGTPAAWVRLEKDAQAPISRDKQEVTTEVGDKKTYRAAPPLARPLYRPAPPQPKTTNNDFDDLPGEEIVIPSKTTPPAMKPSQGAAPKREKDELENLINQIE
Description: Bocillin-FL competition binding via gel filtration, A. baumannii PBP1a. To be noted: competition binding assay using Bocillin-FL via gel filtration; read-out: A. baumannii PBP1a Potency. In short, it runs like this:
as §1

Chain of A. baumannii PBP2 (D0C8Z9 whole entry): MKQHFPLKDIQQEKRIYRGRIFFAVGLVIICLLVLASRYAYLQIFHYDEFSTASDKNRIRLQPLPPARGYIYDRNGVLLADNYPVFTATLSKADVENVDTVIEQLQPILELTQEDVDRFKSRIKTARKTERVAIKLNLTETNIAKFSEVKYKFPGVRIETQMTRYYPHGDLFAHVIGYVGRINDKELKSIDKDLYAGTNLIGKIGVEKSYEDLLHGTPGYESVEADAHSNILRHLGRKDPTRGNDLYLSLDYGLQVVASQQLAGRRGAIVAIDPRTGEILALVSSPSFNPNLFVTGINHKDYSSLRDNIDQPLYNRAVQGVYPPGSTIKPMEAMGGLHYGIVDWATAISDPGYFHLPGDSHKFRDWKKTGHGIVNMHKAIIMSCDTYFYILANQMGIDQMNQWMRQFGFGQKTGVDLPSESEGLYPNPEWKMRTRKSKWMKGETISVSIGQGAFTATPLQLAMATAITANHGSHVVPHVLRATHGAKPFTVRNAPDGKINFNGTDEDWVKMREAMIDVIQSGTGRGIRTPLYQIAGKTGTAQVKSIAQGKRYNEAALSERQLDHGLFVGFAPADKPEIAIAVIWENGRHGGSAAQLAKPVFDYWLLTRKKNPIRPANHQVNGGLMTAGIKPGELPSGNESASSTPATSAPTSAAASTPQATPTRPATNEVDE

Turning to `CS(=O)(=O)N1CCN(C(=O)N[C@@H](C(=O)N[C@H]2Cc3ccc(F)c(C(=O)O)c3OB2O)c2ccc(P(=O)(O)O)c(F)c2)C1=O` (single isomer, unassigned) [Example 19], the MIC in the assay with P. aeruginosa CDC-0090 is greater than 128 µg/mL; in the assay on P. aeruginosa CDC-0095 it was greater than 128 µg/mL; in assay [1], 32 to 64 µg/mL (≈ 49.5 to 99 µM); with A. baumannii ATCC 19606, 32 to 64 µg/mL (≈ 49.5 to 99 µM); in the assay on A. baumannii CDC-0083, greater than 128 µg/mL; with P. aeruginosa CDC-0110, greater than 128 µg/mL. Moreover, the MIC in assay [2] lay within 32 to 64 µg/mL (≈ 49.5 to 99 µM).

Consider `O=C(O)c1c(F)ccc2c1OB(O)[C@@H](NC(=O)C(NC(=O)N1CCN(Cc3ccc(O)c(O)c3Cl)C(=O)C1=O)c1ccc(P(=O)(O)O)cc1)C2` (stereo partly drawn) [Example 8, (3R)-3-(2-(4-(2-chloro-3,4-dihydroxybenzyl)-2,3-dioxopiperazine-1-carboxamido)-2-(4-phosphonophenyl)acetamido)-7-fluoro-2-hydroxy-3,4-dihydro-2H-benzo[e][1,2]oxaborinine-8-carboxylic acid], for which the MIC with B. pseudomallei Bp82 was less than 1 µg/mL; in the assay with P. aeruginosa CDC-0090 it was 2 to 4 µg/mL (≈ 2.72 to 5.44 µM); in the assay with P. aeruginosa CDC-0095, less than 1 µg/mL; in [1] it was less than 1 µg/mL; in the assay on A. baumannii ATCC 19606, less than 1 µg/mL; in the assay with A. baumannii CDC-0083, less than 1 µg/mL. Also, the MIC (in the assay with P. aeruginosa CDC-0110; in assay [2]) was less than 1 µg/mL in each case. In addition, the EC50 on A. baumannii PBP2 and on A. baumannii PBP1a was 10 to 50 µM in each case.

On to `CS(=O)(=O)N1CCN(C(=O)NC(C(=O)N[C@H]2Cc3cccc(C(=O)O)c3OB2O)c2ccc(P(=O)(O)O)c(O)c2)C1=O` (stereo partly drawn) [Example 17, (3R)-2-hydroxy-3-(2-(3-hydroxy-4-phosphonophenyl)-2-(3-(methylsulfonyl)-2-oxoimidazolidine-1-carboxamido)acetamido)-3,4-dihydro-2H-benzo[e][1,2]oxaborinine-8-carboxylic acid], for which, on A. baumannii PBP2, the EC50 is 50 to 250 µM.

Take `O=C(O)c1c(F)ccc2c1OB(O)[C@@H](NC(=O)C(NC(=O)N1CCN(Cc3ccc(O)c(O)c3Cl)C(=O)C1=O)c1ccc(P(=O)(O)O)c(F)c1)C2` (stereo partly drawn) [Example 23, (3R)-3-(2-(4-(2-chloro-3,4-dihydroxybenzyl)-2,3-dioxopiperazine-1-carboxamido)-2-(3-fluoro-4-phosphonophenyl)acetamido)-7-fluoro-2-hydroxy-3,4-dihydro-2H-benzo[e][1,2]oxaborinine-8-carboxylic acid]: the MIC with P. aeruginosa CDC-0090 is 8 to 16 µg/mL (≈ 10.6 to 21.3 µM); with P. aeruginosa CDC-0095 it was less than 1 µg/mL; in assay [1] it was less than 1 µg/mL; with A. baumannii ATCC 19606 it was less than 1 µg/mL; in the assay with A. baumannii CDC-0083, less than 1 µg/mL; in the assay on P. aeruginosa CDC-0110, less than 1 µg/mL. In addition, the MIC in [2] is less than 1 µg/mL. Further, the EC50 was less than 10 µM at A. baumannii PBP2 and 10 to 50 µM on A. baumannii PBP1a.

In the case of `O=C(O)c1cccc2c1OB(O)[C@@H](NC(=O)C(NC(=O)N1CCN(Cc3ccc(O)c(O)c3Cl)C(=O)C1=O)c1ccc(P(=O)(O)O)cc1)C2` (stereo partly drawn) [Example 24, (3R)-3-(2-(4-(2-chloro-3,4-dihydroxybenzyl)-2,3-dioxopiperazine-1-carboxamido)-2-(4-phosphonophenyl)acetamido)-2-hydroxy-3,4-dihydro-2H-benzo[e][1,2]oxaborinine-8-carboxylic acid], the MIC in the assay with P. aeruginosa CDC-0090 was 8 to 16 µg/mL (≈ 11.2 to 22.3 µM); in the assay with P. aeruginosa CDC-0095, less than 1 µg/mL; in assay [1], less than 1 µg/mL; in the assay with A. baumannii ATCC 19606 it was less than 1 µg/mL; in the assay with A. baumannii CDC-0083, less than 1 µg/mL; with P. aeruginosa CDC-0110 it was less than 1 µg/mL. In assay [2], the MIC is less than 1 µg/mL. In addition, the EC50 at A. baumannii PBP2 and at A. baumannii PBP1a was 10 to 50 µM each time.

As for `O=C(O)c1c(F)ccc2c1OB(O)[C@@H](NC(=O)C(NC(=O)N1CCN(Cc3cc(F)c(O)c(O)c3Cl)C(=O)C1=O)c1ccc(P(=O)(O)O)cc1)C2` (stereo partly drawn) [Example 45, (3R)-3-(2-(4-(2-chloro-5-fluoro-3,4-dihydroxybenzyl)-2,3-dioxopiperazine-1-carboxamido)-2-(4-phosphonophenyl)acetamido)-7-fluoro-2-hydroxy-3,4-dihydro-2H-benzo[e][1,2]oxaborinine-8-carboxylic acid], the MIC (in the assay on P. aeruginosa CDC-0090; with P. aeruginosa CDC-0095; in [1]; in the assay on A. baumannii ATCC 19606; with A. baumannii CDC-0083; in the assay on P. aeruginosa CDC-0110) was less than 1 µg/mL throughout. Besides, the MIC in assay [2] was less than 1 µg/mL. Also, the figures for the EC50 at A. baumannii PBP2 and at A. baumannii PBP1a were less than 10 µM and 10 to 50 µM, respectively.

Turning to `O=C(O)c1c(F)ccc2c1OB(O)[C@@H](NC(=O)C(NC(=O)N1CCN(Cc3ccc(O)c(O)c3Cl)C1=O)c1ccc(P(=O)(O)O)cc1)C2` (stereo partly drawn) [Example 46, (3R)-3-(2-(3-(2-chloro-3,4-dihydroxybenzyl)-2-oxoimidazolidine-1-carboxamido)-2-(4-phosphonophenyl)acetamido)-7-fluoro-2-hydroxy-3,4-dihydro-2H-benzo[e][1,2]oxaborinine-8-carboxylic acid], the MIC is 2 to 4 µg/mL (≈ 2.83 to 5.66 µM) in the assay on P. aeruginosa CDC-0090; less than 1 µg/mL with P. aeruginosa CDC-0095; less than 1 µg/mL in assay [1]; less than 1 µg/mL in the assay with P. aeruginosa CDC-0110; less than 1 µg/mL in [2]. Besides, the EC50 was 10 to 50 µM on A. baumannii PBP2 and less than 10 µM at A. baumannii PBP1a.

As to `O=C(N[C@@H](C(=O)N[C@H]1Cc2cccc(C(=O)O)c2OB1O)c1ccc(P(=O)(O)O)cc1)c1ccc(O)c(O)c1Cl` [Example 49, (R)-3-((R)-2-(2-chloro-3,4-dihydroxybenzamido)-2-(4-phosphonophenyl)acetamido)-2-hydroxy-3,4-dihydro-2H-benzo[e][1,2]oxaborinine-8-carboxylic acid], the MIC in the assay with P. aeruginosa CDC-0090 is 2 to 4 µg/mL (≈ 3.39 to 6.77 µM); with P. aeruginosa CDC-0095, less than 1 µg/mL; in assay [1] it was less than 1 µg/mL; in the assay on A. baumannii ATCC 19606, less than 1 µg/mL; in the assay on A. baumannii CDC-0083 it was greater than 128 µg/mL; in the assay with P. aeruginosa CDC-0110, less than 1 µg/mL. Also, the MIC in [2] is less than 1 µg/mL. The EC50 at A. baumannii PBP2 and at A. baumannii PBP1a was 10 to 50 µM throughout.

For the compound `O=C(NCCN1CCN(C(=O)NC(C(=O)N[C@H]2Cc3ccc(F)c(C(=O)O)c3OB2O)c2ccc(P(=O)(O)O)cc2)C(=O)C1=O)c1ccc(O)c(O)c1Cl` (stereo partly drawn) [Example 120, (3R)-3-(2-(4-(2-(2-chloro-3,4-dihydroxybenzamido)ethyl)-2,3-dioxopiperazine-1-carboxamido)-2-(4-phosphonophenyl)acetamido)-7-fluoro-2-hydroxy-3,4-dihydro-2H-benzo[e][1,2]oxaborinine-8-carboxylic acid], the MIC (in the assay on P. aeruginosa CDC-0090; in the assay on P. aeruginosa CDC-0095; in assay [1]; in the assay on A. baumannii ATCC 19606; in the assay with A. baumannii CDC-0083; in the assay on P. aeruginosa CDC-0110) was less than 1 µg/mL throughout. For the same compound, the MIC in assay [2] is less than 1 µg/mL. The EC50 at A. baumannii PBP2 and at A. baumannii PBP1a was 10 to 50 µM throughout.
